In data set [1] the test system is carbonyl reductase. Kind of data set: Substrate specificity: reductase activity with various ketones and aldehydes in the presence of a coenzyme. Type of data set: biochemical, Kluyveromyces aestuarii. On the set-up: concentration or dose not given beside the values. The settings on record: reduction reaction, ethyl 4-chloroacetoacetate with NADH taken as 100. The procedure: (§1) A decrease of absorbance at 340 nm, following a decrease of NADH, is measured during the reaction at 30 in a reaction mixture containing 50 mM potassium phosphate buffer (pH 6.5), 0.2 mM NADH, 20 mM ethyl 4-chloroacetoacetate, and the enzyme. One unit of the enzyme of the present invention is defined as the amount required to decrease […] of NADH in 1 min. A protein is quantitated by the dye-binding method using a Protein Assay Kit (BioRad).
(§2) The reductase activity of the enzyme obtained in Example 1 was measured by reacting the enzyme with various ketones and aldehydes in the presence of a coenzyme. The results are shown in Table 2 as the activity relative to that of ethyl 4-chloroacetoacetate in the presence of NADH that is taken as 100.

Data set [2] relates to carbonyl reductase. Description: Influence of inhibitors on the carbonyl reductase (residual reductase activity). It is filed as biochemical, Kluyveromyces aestuarii. The settings on record: for Residual activity: 30, 10 min, activity without any reagent taken as 100. The procedure:
as §1
The enzyme obtained in Example 1 was incubated at 30 for 10 min in the presence of various reagents, and its reductase activity to […] was measured. The results are shown in Table 3 as the residual activity to that obtained without any reagent that is taken as 100.

Data set [3] has as its system carbonyl reductase. Kind of data set: Substrate specificity: NAD+-dependent dehydrogenase (oxidation) activity. It is filed as biochemical, Kluyveromyces aestuarii. On the set-up: Relative activity (%): concentration or dose not given beside the values. The settings on record: for Relative activity (%): oxidation reaction, coenzyme NAD+, reduction of ethyl 4-chloroacetoacetate with NADH taken as 100; for NAD+-dependent dehydrogenase activity (in words): substrate with NAD+. The procedure: The enzyme contacts the substrate, 4-halo-3-hydroxybutyrate ester, in the presence of NAD^+, and the change (per unit time) of the absorbance at 340 nm, which is accompanied with an increase or decrease of NADH, is measured.
as §2

The nature of data set [4]: 4-chloroacetoacetate ester-reducing activity of the purified enzyme. The settings on record: 20 mM ethyl 4-chloroacetoacetate, 0.2 mM NADH, pH 6.5; after Superdex 200. Type of data set: biochemical, Kluyveromyces aestuarii. The procedure: as §1
Kluyveromyces aestuarii IFO 10597 was cultured in 20 L of YM medium containing 24 g/L glucose, 3 g/L yeast extract, 3 g/L malt extract, and 5 g/L peptone (pH 6.0). The cultured cells were harvested by centrifugation. […]
The activity of the carbonyl reductase was detected in three fractions, a passed-through fraction and two gradient-eluted fractions. […]
The concentrated enzyme solution was adjusted to 20% saturation with ammonium sulfate and was applied to a butyl-Toyopearl 650M column (1.6 cm×5 cm) equilibrated with the standard buffer containing 20% saturation ammonium sulfate. […] The peak of the activity of the carbonyl reductase was detected in two eluted fractions. […]
The active fractions obtained by gel filtration were concentrated and analyzed by polyacrylamide gel electrophoresis (PAGE). The enzyme was detected as a substantially single band (FIG. 1). […]

The format of data set [5] is physicochemical, Kluyveromyces aestuarii. The procedure:
The enzyme obtained in Example 1 was incubated at pH 8.0 for 10 min at 30, 37, 45, 50, and 55; the reductase activity of each incubation mixture to ethyl 4-chloroacetoacetate was then measured. The results are shown in FIG. 5 as the residual activity to the activity of the untreated enzyme that is taken as 100.

Take `CC(=O)CC(C)=O` [2,4-pentandione]: the “Relative activity (%)” value in data set [1] (coenzyme NADH) came to 0%.
Regarding `O=S(=O)([O-])[O-].[Cu+2]` [copper sulfate], the “Inhibition of the carbonyl reductase (in words)” value in data set [2] was “significantly inhibited”. In addition, the Residual activity in data set [2] (inhibitor 1 mM) is on record as 19.0.
`O=S(=O)(F)Cc1ccccc1` [Phenylmethanesulfonyl fluoride] displayed a Residual activity in data set [2] (inhibitor 1 mM) of 99.0.
In the case of `CCOC(=O)C[C@@H](O)CCl` [ethyl (R)-4-chloro-3-hydroxybutyrate], in data set [3], the “Relative activity (%)” value is on record as 0% and the “NAD+-dependent dehydrogenase activity (in words)” value is recorded as “did not show any”.
With `O=C(O)c1cc[c]([Hg][Cl])cc1` [p-chloromercuribenzoic acid], the “Inhibition of the carbonyl reductase (in words)” value in data set [2] is “significantly inhibited”. This molecule also registered a Residual activity in data set [2] (inhibitor 0.05 mM) of 0.
Take `CCOC(=O)C[C@H](C)O` [ethyl (S)-3-hydroxybutyrate]: the “Relative activity (%)” value in data set [3] worked out at 0%.
As to `CC(=O)c1ccccc1` [Acetophenone], in data set [1] (coenzyme NADH), the “Relative activity (%)” value amounted to 0%.
For the molecule `NC(=O)CI` [iodoacetamide], in data set [2], the “Inhibition of the carbonyl reductase (in words)” value is listed as “weakly inhibited”. Besides, the Residual activity in data set [2] (inhibitor 1 mM) came out at 84.0.
For the molecule `CCOC(=O)C[C@@H](C)O` [ethyl (R)-3-hydroxybutyrate], in data set [3], the “Relative activity (%)” value is 1.9%.
On to `O=Cc1cccnc1` [pyridin-3-aldehyde], for which the “Relative activity (%)” value in data set [1] (coenzyme NADH) is listed as 0%.
The same measure, in the same setting: the figure for `CCC=O` [Propionaldehyde] is 2.5%; for `CC(=O)C(C)=O` [2,3-butandione] it is 70.6%; for `COC(=O)CC(C)=O` [methyl acetoacetate] it is 0%.
With `CC(=O)C=O` [Methylglyoxal], in data set [1] (coenzyme NADH), the “Relative activity (%)” value turned out to be 0%.
For `CCOC(=O)C[C@H](O)CCl` [ethyl (S)-4-chloro-3-hydroxybutyrate], in data set [3], the “Relative activity (%)” value is 0% and the “NAD+-dependent dehydrogenase activity (in words)” value is recorded as “did not show any”.
With `CCOC(=O)CC(C)=O` [ethyl acetoacetate], in data set [1] (coenzyme NADH), the “Relative activity (%)” value is given as 0%.
On to `CC(C)O` [Isopropanol], for which, in data set [3], the “Relative activity (%)” value was determined as 0% and the “NAD+-dependent dehydrogenase activity (in words)” value is on record as “does not substantially dehydrogenate”.
`CCOC(=O)CC(=O)CCl` [ethyl 4-chloroacetoacetate]: the “Relative activity (%)” value in data set [1] (coenzyme NADH) came to 100%; in data set [1] (coenzyme NADPH), 6.4%.
In the case of `CCC(=O)C(C)=O` [2,3-pentandione], the “Relative activity (%)” value in data set [1] (coenzyme NADH) stood at 8.2%.
The same measure, in the same setting: the figure for `COC(=O)CC(=O)CCl` [methyl 4-chloroacetoacetate] is 13.1%.
With `CCC1(CC)C(=O)NC(=O)NC1=O` [barbital], the “Inhibition of the carbonyl reductase (in words)” value in data set [2] was “not and not inhibited”. The molecule further had a Residual activity in data set [2] (inhibitor 1 mM) of 101.
Take `O=c1c(O)c(-c2ccc(O)c(O)c2)oc2cc(O)cc(O)c12` [quercetin]: in data set [2], the “Inhibition of the carbonyl reductase (in words)” value was “not and not inhibited”. In data set [2] (inhibitor 0.1 mM), this molecule displayed a Residual activity of 94.0.

B1: carbonyl reductase: NADH-dependent carbonyl reductase purified from Kluyveromyces aestuarii IFO 10597; amino acid sequence SEQ ID NO: 2 (protein, listed as Kluyveromyces aestuarii)
chain: MTFQHFLRGGLEDKTVPQEPPKEQYPDGVNYLSLFSQKGKLTVITGGAGAIGGALCEGFASCGSDVVILDYKYSPELSSVLESRYGVRSKSYQVDITSSEDVKLVVAKILEDFPDRDINTFVANAGIAWTNGSILNENATPDVWKRVMDVNVQGTYHCAKYVAEVFKQQGHGNLILTASMSSYISNVPNYQTCYNASKAAVRHMAKGFAVEFAHLTNPAGKIRCNSVSPGYTDTALSAFVPVEQRAQWWGLTPMGREALPQELVGAYLYLASDAASFTNGCDIQVDGGYTCV
Take B1: the “Specific activity of the purified enzyme” value in data set [4] is reported as “about 28.6 U/mg”. Further, in data set [5], the “Thermostability (relatively stable up to)” value was “up to 40”. The “Residual activity after heat incubation” value in data set [5] (pH 8.0, 10 min, up to 37, untreated enzyme taken as 100) was ≥ 75%.
